These results are taken from patent US20220016080A1, “COMPOUNDS THAT SELECTIVELY AND EFFECTIVELY INHIBIT HAKAI-MEDIATED UBIQUITINATION, AS ANTI-CANCER DRUGS” (FUNDACIÓN PROFESOR NOVOA SANTOS, priority 2018, published 2022).

In data set [1] the test system is LoVo cells. In words: BrdU proliferation assay, LoVo. In kind it is cell-based. The note with it: 48 h. On the procedure:
(§1) For BrdU assays, 1×10^4 of indicated cells were plated per well into a 96-well plate. After 24 h, cells were treated with the indicated inhibitors for 48 h. Three independent experiments were plated with six replicates per each condition. Cells were treated with […] BrdU for 2 h. BrdU incorporation into newly synthesized DNA was measured using a cell proliferation colorimetric immunoassay kit according to the manufacturer's instructions (Roche, Switzerland). Results are expressed as mean±S.D. Results are represented as percentage of positive cells (mean±S.D) of three independent experiments.

The test system of data set [2] is LoVo cells. In words: Immunofluorescence of E-cadherin, LoVo. In kind it is cell-based. The following applies: 48 h. On the procedure:
For western blot analysis, cells were treated with the indicated inhibitors for 48 h and the whole cell extracts were obtained as described previously. Twenty micrograms of lysates were resolved on a 10% polyacrilamide SDS-PAGE followed by western blot analysis performed as previously described. For immunofluorescence assays cells were grown for 24 h on glass coverslips and treated with the indicated inhibitors for 48 h. Cells were fixed with 4% PFA for 15 min, permeabilized with 0.5% […] and incubated with E-cadherin antibody for 2 h. Coverslips were incubated with fluorescein-tagged secondary antibody (Dakopatts, Sweden) for […]. Finally coverslips were mounted with ProLong Gold antifade reagent (LifeTech, UK) and images were taken in epifluorescence microscope (Olympus) using 40× objective.

For data set [3], the system named is renal cancer ACHN cells. The data set is described as follows: BrdU proliferation assay, ACHN. In kind it is cell-based, human. The note with it: 48 h. The method, then:
as §1

In data set [4] the test system is Hakai-MDCK xenograft tumours. In words: Tumour xenograft model (Hakai-MDCK cells in nude mice). In kind it is in vivo, athymic nu/nu mice. The method, then:
Xenografts experiments were performed in Experimental Surgery Unit—Technological Training Center from INIBIC in compliance with the European Community Law (86/609/EEC) and the Spanish law (R.D. 53/2013). The experiment was approved by the Ethics Committee for Animal Experimentation of Xerencia de Xestion Integrada da Coruna (XXIAC). Mice were in a 12/12 hours light/dark cycle with water and food available ad libitum. Six weeks old athymic nu/nu mice were randomly distributed in groups. One million of MDCK cells, resuspended in DMEM without serum and antibiotic, were subcutaneously inoculated in both flanks in two groups of 3 animals. The same number of Hakai-MDCK cells were injected in two groups of 4 animals. Twenty days after inoculation tumours in Hakai-MDCK were palpable. Then, half of the animals were treated with Hakin-1 (5 mg/kg) and the other half with the same concentration of DMSO every 3 days. Tumour outgrowth was monitored twice a week taking measurements of tumour length (L) and width (W) with an electronic calipter. Tumour volume was calculated as pLW2/6. Forty days after inoculation, animals were sacrificed. Tumours, lungs, kidneys and livers were collected and fixed in 4% PFA and embedded in paraffin blocks for histology and/or immunohistochemistry (IHC) analyses.
Tumours and tissues were deparaffinised, rehydrated and stained with haematoxylin and eosin (H&E) as previously described. Tumour sections (4 μm) were also deparaffinised and hydrated for immunohistochemistry. Antigen retrieval was carried by heating the samples (2100 Retriever; PickCell Laboratories) in citrate buffer (Dako REAL, Denmark) or in EDTA buffer. Then, endogenous peroxidase activity was blocked with peroxidase blocking (DakoCytomation, Denmark). Samples were blocked and permeabilized with 0.2% BSA and 0.1% Tx-100 for 1 hour and incubated with the indicated primary antibodies overnight at 4° C. in a wet chamber. Slides were incubated for 1 hour at room temperature with the secondary antibody and detection was carried our using DAB (DakoReal Envision kit) according to manufacturer instructions. Finally, nuclei were counterstained with Gill's Hematoxylin and mounted with DePeX. Pictures were taken with an Olympus microscope. Quantification of images was performed taken 5 photographs of each animal with Image J programme and the represented results are shown as mean±SEM. The number of mitosis was counted in sections stained with H&E. In this case, ten pictures of each tumour were taken with an Olympus BX50 microscope (objective 40×) and the number of mitosis was counted manually. Results are represented as mean±SEM and a representative photograph is shown for each condition. […]
Tissue sections from tumours were deparaffinised and rehydrated using standard protocols. The slides were rinsed twice with PBS and treated with citrate buffer buffer (Dako REAL, Denmark) in microwave at 350 W for 5 min. The tissue sections were then analysed with an in situ Cell Death Detection Kit, Fluorescein (Roche) following the manufacturer's instructions. Then, slides were incubated with Hoechst for 5 min in darkness. The reaction was visualized under an epifluorescence Olympus microscope using 20× objective. Five representative pictures of each section were taken. The percentage of positive cells was calculated and results are represented as mean±SEM.

Data set [5] has as its system MDCK non-transformed cells. In words: Soft agar-colony formation assay, MDCK. In kind it is cell-based. The note with it: 21 days. The method, then: Soft agar-colony formation assay was performed on 12-well plates in triplicates at a density of 5×10^3 MDCK and MDCK-Hakai cells/well, or 12×10^3 HT29 cells/well. Cells were seeded in medium with 0.5% low-melting agarose over a layer with 0.75% low-melting agarose (Lonza Rockland, Me., USA). Cells were treated with the indicated inhibitors and DMSO was used as vehicle. Treatment was refreshed every 3 days and, after 21 days for MDCK and MDCK-Hakai cells or 28 days for HT29 cells, number of colonies were quantified. Quantification of five randomly-selected fields of each condition was photographed with a Nikon Eclipse-TI microscope (objective 4×). Experiments were conducted with three triplicates and were repeated three times. Data are represented as mean±SD.

Setting [6] is: Hakai-MDCK xenograft tumours, 5 mg/kg every 3 days.
The mark [7] stands for this setting: Hakai-MDCK xenograft, 5 mg/kg every 3 days.

For `O=C(O)c1ccc(-n2nnnc2SCC(=O)c2ccc([N+](=O)[O-])cc2)cc1` [Hakin-1, 4-(5-{[2-(4-nitrophenyl)-2-oxoethyl]thiol}-1H-tetrazol-1-yl)benzoic acid], the “cell proliferation (BrdU)” value in data set [1] is listed as “reduced cell proliferation”. In addition, the “E-cadherin levels at cell-cell contacts (immunofluorescence)” value in data set [2] is given as “significant increase E-cadherin levels at cell-cell contacts”. In addition, in data set [3], the “cell proliferation (BrdU)” value is reported as “inhibits cell proliferation”. In addition, the “micrometastasis detected in lung (quantitative PCR of HA-tagged Hakai DNA)” value in data set [4] (Hakai-MDCK xenograft mice, compared to DMSO treated mice) is listed as “significant reduction of micrometastasis”. Further, the “Cortactin expression (immunohistochemistry)” value in data set [4] (Hakai-MDCK xenograft tumours) was “recovered”. Further, the “E-cadherin (immunohistochemistry)” value in data set [4] (Hakai-MDCK xenograft tumours, in presence or absence of treatment) was “not detected”. Also, in data set [4] (setting [6]), the “apoptosis (TUNEL assay)” value was “no effect on apoptosis was detected”, the “mitotic-index (H&E)” value is “markedly reduce” and the “number of Ki67-positive cells (immunohistochemistry)” value was “markedly reduce”. Further, in data set [4] (Hakai-MDCK xenograft tumours, vs non-treated tumours), the “number of blood vessels (CD31 angiogenic marker)” value is on record as “strong reduction on the number of blood vessels”. Further, the xenograft tumour growth result in data set [4] (Hakai-MDCK xenograft, nude mice, 5 mg/kg every 3 days, vs DMSO) is on record as “potent effect on inhibiting xenograft tumour growth”. For the same compound, in data set [4] (setting [7]), the “tumour-cell infiltration in blood vessels (H&E)” value is “no infiltration was detected”; the “xenograft tumour cell morphology (H&E)” value is “induction of tumour differentiation and an increase in cytoplasm size”. Besides, the “tissue damage (H&E, morphological structure)” value in data set [4] (lung and kidney tissues of treated nude mice, 5 mg/kg) is recorded as “no damage was observed”. The “N-cadherin expression (immunohistochemistry)” value in data set [4] (tumour xenografts, compared to DMSO treated mice) is recorded as “strongly reduced”. Besides, in data set [5], the “colony formation (soft agar)” value is reported as “no colony formation was detected”.
